Measurements taken from patent publication US11369588B2, “NADPH production by the 10-formyl-THF pathway, and its use in the diagnosis and treatment of disease” (The Trustees of Princeton University, priority 2014, dated 2022).
Several values for one entry are separate records, joined by “and”; a condition that tells them apart may be missing. Identical values can stand only once.

Columns and labels:
[1] = test system: oxPPP; experiment: oxPPP tracing: NADPH labeling from 1-2H-glucose in 3T3-L1 cells; format: cell-based; conditions: proliferating 3T3-L1 cells, tracer fed 2 h
Experimental: In one embodiment, PPP activity is measured by incubating cultured adipocytes (e.g., 3T3-L1 adipocytes) in the presence of 1-^14C-glucose versus 6-^14C-glucose and detecting the released ^14CO2. The oxPPP releases C1 of glucose as CO2. The 6-^14C-glucose corrects for release of C1 by other pathways, because C1 and C6 are rendered identical by the triose phosphate isomerase step in glycolysis. After determining the oxPPP flux, the cells are provided with 1-^2H-glucose, which selectively labels NADPH in the first step (G6PDH) of the PPP.
Two complimentary methods were used to measure oxPPP activity in the proliferating and differentiating 3T3-L1 cells. First, cells were cultured in the presence of 1-^14C-Glucose versus 6-^14C-Glucose and the release of ^14CO2 was detected. The oxPPP releases C1 of glucose as CO2. The 6-^14C-Glucose corrects for release of C1 by other pathways, because C1 and C6 are rendered identical by the triose phosphate isomerase step in glycolysis. […] Next, cells were fed 1-^2H-Glucose, which selectively labels NADPH in the first step (G6PDH) of the oxPPP, and can therefore be used to determine the fraction of NADPH made by the oxPPP. In the proliferating cells, M+1 NADPH exceeded M+1 NADP+ by ˜16% (FIG. 18). […] In contrast, in the differentiating adipocytes, there was much less NADPH labeling from 1-^2H-Glucose. […]

[2] = test system: malic enzyme; experiment: Tracing hydride flux through malic enzyme with 2H tracers in 3T3-L1 cells (LC-MS labeling of malate, aspartate, NADPH, fatty acids); format: cell-based; conditions: for fraction of M+1 aspartate / fraction of M+1 malate / fraction of M+2 malate: differentiating 3T3-L1 adipocytes day 5; for fatty acid 2H-labeling, M+0 fraction / fatty acid 2H-labeling, M+1 fraction / fatty acid 2H-labeling, M+2 fraction: tracer 5 days
Source text: To more directly establish the contribution of malic enzyme to NADPH production, cells are provided with the ^2H-labeled succinate analogue, 2,2,3,3-^2H-dimethyl-succinate, and deuterium labeling is followed through the C2 hydride of malate to NADPH and finally to newly synthesized fatty acid molecules (FIGS. 15A-15F). Although any suitable labeled molecule may be used to trace hydride flux from malate to NADPH and subsequently into fat, it is preferred to use 2,2,3,3-^2H-dimethyl-succinate for the above purpose.
NADPH labeling at its redox active hydride was analyzed by comparing the M+1 fraction of NADPH to NADP+.
Converting the NADPH labeling fraction from 2,2,3,3-^2H-dimethyl-succinate into the fractional NADPH contribution of malic enzyme requires two important corrections: (i) fractional ^2H-labeling of malate's C2 hydride and (ii) the malic enzyme deuterium kinetic isotope effect (approximately 1.5).
2,2,3,3-^2H-dimethyl succinate was used to track hydride transfer mediated by malic enzyme. Tracer addition increased the cellular concentration of succinate without markedly perturbing other metabolite concentrations or fluxes. Labeling from 2,2,3,3-^2H-dimethyl succinate was followed through the C2 hydride of malate to NADPH and finally to newly synthesized fatty acids. NADPH labeling at its redox active hydride was analyzed by comparing the M+1 fraction of NADPH to NADP^+. […] Adjustment for the kinetic isotope effect in hydride transfer from NADPH to fat (˜1.1) (Yuan, Z. et al. (1984) “Elementary Steps in the Reaction Mechanism of Chicken Liver Fatty Acid Synthase,” 259:6748-6751) yields an associated cytosolic NADPH labeling fraction of 3.2%±0.5%, in excellent agreement with the directly measured whole cell NADPH labeling.
The NADPH labeling fraction from [2,2,3,3-^2H] dimethyl succinate was converted into the fractional NADPH contribution of malic enzyme is accordance with Equation 15. Forward flux from 2,2,3,3-^2H-succinate results in 2,3-^2H-malate, i.e., M+2 malate. The observed fraction of M+2 malate was, however, only 1.5%. The larger peak was M+1 malate (10.9%). Reverse flux through malate dehydrogenase can produce M+1 malate labeled at the C3 hydride (3-^2H-malate). As fumarate is symmetric, fumarase will interconvert 3-^2H-malate and 2-^2H-malate. Because malic enzyme will produce NADPH selectively from malate labeled at the C2 hydride, the relative abundance of 2-^2H-malate versus 3-^2H-malate was determined. 3-^2H-malate (and also 2,3-^2H-malate) yields M+1 oxaloacetate and aspartate, whereas 2-^2H-malate yields unlabeled oxaloacetate and aspartate. […] Summing 2-^2H-malate and 2,3-^2H-malate, the fraction of malate that is capable of making NADPH was 7.9%. Thus, while 2,2,3,3-^2H-dimethyl succinate labeled only approximately 3.2% of NADPH, after adjusting for the extent of malate labeling and the malic enzyme kinetic isotope effect, the fraction of NADPH generated via malic enzyme was calculated to be is approximately 60%.
4-^2H-glucose was therefore employed as a metabolic tracer. Cells were grown in 6 cm tissue culture dishes, and the labeled medium was replaced every day, and additionally 2 hours before extracting metabolites. Because labeling of glycolytic and oxPPP intermediates and the redox active hydride of NADPH reaches steady state over approximately 5 min, where for TCA intermediates this can take several hours, to ensure steady-state labeling, oxPPP tracing with 1-^2H-glucose and 1,2-^13C-glucose is performed for a minimum of 30 min and other labeling experiments for a minimum of 12 h. Metabolism is then quenched and metabolites extracted by aspirating media and immediately adding 2 mL −80° C. 80:20 methanol:water. After 20 min. of incubation on dry ice, the resulting mixture was scraped, collected into a centrifuge tube, and centrifuged at 10000 g for 5 min. Insoluble pellets were re-extracted with 1 mL −80° C. 80:20 methanol: water on dry ice. […]

[3] = test system: HEK293T cells; conditions: 3 days, DMEM no serine, 5 mM glycine instead of 0.4 mM
[4] = test system: HEK293T cells; conditions: non-growing HEK293T cells, 150 μM H2O2, 5 h
Experimental: Total cytosolic NADPH turnover was measured based on the absolute oxPPP flux divided by the fractional contribution of the oxPPP to total NADPH as measured using NADP2H formation from 1-^2H-glucose. Mean±SD, N=3.

[5] = test system: methylene-THF oxidation pathway; experiment: Folate pathway tracing: NADPH labeling from 2,3,3-2H-serine in 3T3-L1 cells; format: cell-based

SMILES	fraction of M+1 aspartate [2]	fraction of M+1 malate [2]	fraction of M+2 malate [2]	fatty acid 2H-labeling, M+0 fraction ([2]; differentiating 3T3-L1 cells)	fatty acid 2H-labeling, M+1 fraction ([2]; differentiating 3T3-L1 cells)	fatty acid 2H-labeling, M+2 fraction ([2]; differentiating 3T3-L1 cells)	fatty acid 2H-labeling, M+0 fraction ([2]; proliferating 3T3-L1 cells)	further results
[2H]C1(O)OC(CO)C(O)C(O)C1O (stereo not drawn) [1-^2H-Glucose]								excess of M+1 NADPH over M+1 NADP+ [1]: ~16%
[2H]C([2H])(C(=O)OC)C([2H])([2H])C(=O)OC [2,2,3,3-^2H-dimethyl succinate]	6.0%	10.9%	1.5%	approximately 60%	~30%	~10%	100%	fraction of 2-2H-malate ([2]; M+1 plus M+2 malate minus M+1 aspartate, differentiating 3T3-L1 adipocytes): approximately 6.4%; fraction of NADPH generated via malic enzyme ([2]; after adjusting for malate labeling and malic enzyme kinetic isotope effect, normoxic differentiating 3T3-L1 adipocytes): approximately 60%; fraction of malate capable of making NADP2H (2-2H-malate plus 2,3-2H-malate) ([2]; differentiating 3T3-L1 adipocytes): 7.9%; average hydride 2H-labeling fraction of a set of abundant fatty acids ([2]; differentiating 3T3-L1 adipocytes, newly synthesized fatty acids only): 2.87%±0.31%; total adipocyte (whole cell) NADPH labeled at redox active hydride ([2]; differentiating (day 5) 3T3-L1 adipocytes, tracer fed 24 h): 3.4%±0.3%
NCC(=O)O [glycine]								cell growth (relative cell number) [3]: inhibit cell growth; relative NADPH/NADP+ ratio [3]: decrease the NADPH/NADP+ ratio
OO [hydrogen peroxide]								total cytosolic NADPH production rate [4]: 5.5 nmol/µL/h
[2H][C@@]1(O)[C@@H](CO)OC(O)[C@H](O)[C@@H]1O (stereo partly drawn) [4-^2H-glucose]	4.3% and 4.3 ± 0.1%	12.3% and 12.3 ± 0.1%	0.3% and 0.3 ± 0.0%	approximately 60%	~35%	~5%	100%	
[2H]C([2H])(O)[C@]([2H])(N)C(=O)O [2,3,3-^2H-serine]								labeling of NADPH at its redox active hydride [5]: approximately 3%
